Laboratory results published in patent US6869961B2, “Store operated calcium influx inhibitors and methods of use” (Cellegy Pharmaceuticals, Inc., priority 2001, dated 2005).

How the values were obtained:
IL-2 [1] = assay: IL-2 release from Jurkat cells (PMA and ionomycin, ELISA); assay type: cell-based, human; details: for IC50: Homo sapiens, Jurkat, Table III, 'the foregoing assay' of Example 2
Method: Since NFAT plays a critical role in IL-2 and TNFα gene transcription, the effects of the novel compounds on IL-2 and TNFα secretion from stimulated lymphoid cells were also investigated. Jurkat cells, in standard medium, were seeded into 24-well dishes at 1 million cells per well and were treated as follows: […], then stimulated with 20 ng/mL PMA and 1 μg/mL ionomycin for 5 hours. Following centrifugation, the supernatants were analyzed for IL-2 content by ELISA using a standard protocol.

NFAT = assay: NFAT-regulated luciferase reporter assay in Jurkat cells; assay type: cell-based, human; details: for inhibition of NFAT activity: NFAT reporter assay, Jurkat cells
Method: The biological activity of column fractions and crystalline material was assessed in the NFAT activation assay using Jurkat cells stably transfected with NFAT-regulated luciferase reporter (see, FIGS. 9-14).
Jurkat cells, in standard medium, were seeded in 24-well dishes at 1 million cells per well and treated as follows. […] The cells were harvested 5 hours later and luciferase activity was measured in a luminometer.

TNF-alpha = assay: PBMC TNF-alpha release; assay type: cell-based; details: FIG. 4
[2] = system: rat basophilic leukemia (2H3) cells; assay: 5-HT release from rat basophilic leukemia (2H3) cells; assay type: cell-based; details: FIG. 5
IL-8 = IL-8 production from Jurkat cells; assay type: cell-based, human
JNK = JNK phosphorylation in Jurkat T cells (Western blot); assay type: cell-based, human; design: dose or concentration left out as unconfirmed; details: lovastatin
Excerpt: Cells were harvested, lysates prepared, and proteins Western blotted using antibodies directed against JNK or phospho-JNK (Thr183/Thr185).

TNBS-induced colitis = assay: Rat TNBS-induced colitis model; assay type: in vivo; details: 50 mg/kg/day intracolonically, two weeks, day 14
Excerpt: Human inflammatory bowel disease (IBD) is a chronic relapsing and remitting disease of unknown etiology that affects individuals of both sexes throughout life. The factors contributing to the two main forms of the disease, Crohn's disease and ulcerative colitis, are complex and probably involve abnormal immune responses and commensal intestinal microflora. A number of experimental models of intestinal inflammation have been developed, including those based on intracolonic instillation of 2,4,6-trinitrobenzene sulfonic acid (TNBS). TNBS-induced colitis shares many of the histopathological and clinical features of Crohn's disease, i.e. it is to some extent immune-mediated, produces long lasting ulcerative damage and thickening of the bowel wall, granulocyte and mononuclear cell infiltration and granuloma formation, and transmural inflammation of the mucosa, (Morris et al., Gastroenterology 96:795-803, 1989). This model has been widely used to evaluate potential treatments for colonic inflammation.
In the present study, the local anti-inflammatory effects of lovastatin were assessed in the rat TNBS-induced colitis model. Colitis was induced in male Wistar rats weighing 175-225 g by intracolonic instillation of the hapten TNBS (60 mg/ml) in 0.5 ml of 50% ethanol. Groups of 8 rats received the lovastatin formulation prepared in Example 11 (50 mg/kg/day), a positive control, budesonide (2.5 mg/kg/day), or vehicle (0.5% sodium carboxymethylcellulose) intracolonically 1 hour after induction of colitis, and at 12 h intervals thereafter for two weeks. The rats received 0.5 ml of test drug or vehicle at each dosing. On day 14 after induction of colitis, the animals were euthanized and the distal colon was removed and pinned out on a wax platform. The presence or absence of diarrhea was noted, as was the presence and severity of adhesions between the colon and other organs. The severity of colonic damage was scored using the criteria described in Appleyard and Wallace, Am. J. Physiol. 269 (Gastrointest.Liver Physiol. 32): G119-G125, 1995. […]

IL-2 [3] = assay: PBMC IL-2 release; assay type: cell-based; details: FIG. 3
[4] = system: oxazolone-induced contact hypersensitivity response; details: mouse, FIG. 6
IFN-gamma = IFN-gamma production from Jurkat cells; assay type: cell-based, human
NF-κB = NF-κB luciferase reporter in Jurkat T cells; assay type: cell-based, human; details: 20 μg/ml, 5 hr
Method: The next day, cells were preincubated with lovastatin (20 μg/ml) or vehicle control for 15 min, and then stimulated with PMA (20 ng/ml), ionomycin (1 μg/ml), or PMA+ionomycin for 5 hr. The cells were harvested, lysed, and lysates assayed for firefly luciferase and Renilla luciferase activity measured in a luminometer.

Crohn's disease = assay: Maintenance therapy of Crohn's disease in remission; assay type: in vivo, human; details: Crohn's disease subjects in remission
Excerpt: Remission is defined as no need for oral prednisone and presence of a score of 150 or less on the Crohn's Disease Activity Index. This index incorporates eight items: the number of liquid or very soft stools in the seven days preceding the assessment, the severity of abdominal pain, general well-being, the presence or absence of an abdominal mass or extra-intestinal manifestation of the disease, the use of opiates to treat diarrhea, hematocrit, and weight. Scores in this index can range from 0 to approximately 600. Higher scores indicate greater disease activity.
Upon reaching remission, the subject takes lovastatin orally (Mevacor, 20-1000 mg) every day, in addition to one or more of the following: controlled release lovastatin tablet(s) targeting specific disease sites, lovastatin enema(s), or lovastatin rectal suppositories on a regular basis. On average, 50-60% of Crohn's disease subjects in remission relapse in 40 weeks.

## COC(=O)/C=C/C=C/C=C/c1c(-c2ccc(F)cc2)c2ccccc2n1C(C)C [Compound 1079-76-3C]
IL-2 [1]; 5.0 μg/mL, 30 min pre-incubation, 5 hours
  IL-2 release by PMA and ionomycin in Jurkat cells: inhibit
NFAT; 5 μg/mL, 0.3 μM TG + 20 ng/mL PMA, 5 hours
  inhibition of TG+PMA-induced NFAT activity: approximately 85%
NFAT; Jurkat cells stimulated with ionomycin + PMA or thapsigargin + PMA
  expression of NFAT-regulated reporter gene: inhibited

## CC(C)n1c(/C=C/C(O)CC(O)CC(=O)O)c(-c2ccc(F)cc2)c2ccccc21 (stereo not shown) [fluvastatin]
NFAT
  inhibition of NFAT activity: inactive

## CC[C@H](C)C(=O)O[C@H]1C[C@H](O)C=C2C=C[C@H](C)[C@H](CC[C@@H](O)C[C@@H](O)CC(=O)O)[C@H]21 [Pravastatin, pravastatin]
NFAT
  inhibition of NFAT activity: inactive

## O=C1CCCC(CCc2ccccc2)O1 (stereo not shown)
IL-2 [1]
  IC50: > 50 µM

## O=C1C[C@@H](O)C[C@H](CCc2ccccc2)O1
IL-2 [1]
  IC50: 150 µM

## COC(=O)/C=C/C=C/C=C/c1c(-c2ccc(F)cc2)c2ccccc2n1C(C)C [drawing 85]
IL-2 [1]
  IC50: 3 µM

## CC[C@H](C)C(=O)O[C@H]1C[C@@H](C)C=C2C=C[C@H](C)[C@H](CC[C@@H]3C[C@@H](O)CC(=O)O3)[C@H]21 [lovastatin]
TNF-alpha
  inhibition of PBMC TNF-alpha release: inhibition
[2]
  inhibition of 5-hydroxytryptomine (5-HT) release: inhibition
IL-8
  inhibition of IL-8 production: inhibition
IL-2 [1]; FIG. 2
  inhibition of Jurkat IL-2 release: inhibition
JNK
  PMA-induced JNK phosphorylation: little effect
JNK; 15 min pre-incubation, 30 min stimulation
  JNK phosphorylation induced by PMA+ionomycin: inhibits
TNBS-induced colitis
  colonic MPO activity: reduced
  colonic damage score: significant (p<0.05) reduction
  global colitis score: significant (p<0.05) reduction
IL-2 [3]
  inhibition of PBMC IL-2 release: inhibition
NFAT
  inhibition of NFAT activity: able to inhibit
[4]
  inhibition of oxazolone-induced contact hypersensitivity response: inhibition
IFN-gamma
  inhibition of IFN-gamma production: inhibition
NF-κB
  calcium-dependent NF-κB activation (ionomycin synergy with PMA): strongly inhibits
Crohn's disease
  disease activity: less severe
Crohn's disease; oral 20-1000 mg every day plus local forms
  remission time between relapse: longer

## O=C1C=C(CCc2ccccc2)CO1
IL-2 [1]
  IC50: > 50 µM

## O=C1C[C@H](O)C[C@H](CCc2ccccc2)O1
IL-2 [1]
  IC50: 300 µM

## CC[C@H](C)C(=O)O[C@H]1CCC=C2C=C[C@H](C)[C@H](CC[C@@H]3C[C@@H](O)CC(=O)O3)[C@H]21 [mevastatin]
NFAT
  inhibition of NFAT activity: able to inhibit
NFAT; listed as mevastatin lactone form
  inhibition of NFAT activity: active

## CCOC(=O)/C=C/C=C/C=C/c1ccccc1
IL-2 [1]
  IC50: 4 to 12 µM

## O=C1CCC(CCc2ccccc2)O1 (stereo not shown)
IL-2 [1]
  IC50: > 50 µM

## O=C1C=CCC(CCc2ccccc2)O1 (stereo not shown)
IL-2 [1]
  IC50: 5 µM

## CCC(C)C(=O)OC1CCC=C2C=CC(C)C(CCC(O)CC(O)CC(=O)O)C21 (stereo not shown) [mevastatin open chain form]
NFAT
  inhibition of NFAT activity: only the lactone form was active

## CC(C)c1c(C(=O)Nc2ccccc2)c(-c2ccccc2)c(-c2ccc(F)cc2)n1CC[C@@H](O)C[C@@H](O)CC(=O)O [atorvastatin]
NFAT
  inhibition of NFAT activity: inactive

## CN1C(=O)N(c2cc(Cl)cc(Cl)c2)C(=O)C1(C)Cc1ccc(Br)cc1 (single isomer, unassigned) [BIRT377 less active enantiomer]
NFAT
  inhibition of NFAT activity: very weak NFAT inhibitory activity

## CCOC(=O)/C=C/C=C/CCc1ccccc1
IL-2 [1]
  IC50: 12 to 40 µM

## CN1C(=O)N(c2cc(Cl)cc(Cl)c2)C(=O)[C@@]1(C)Cc1ccc(Br)cc1 [BIRT377]
NFAT
  inhibition of NFAT activity: very weak NFAT inhibitory activity

## O=C1C=CC(CCc2ccccc2)O1 (stereo not shown)
IL-2 [1]
  IC50: 15 µM
